The experiment relates to NK cell activity. Description: NK cell activity in old dogs fed a diet fortified with lipoic acid. The format is in vivo. Conditions: old beagles (Group 3, average age 11.3 years), dry food fortified with 150 ppm lipoic acid on a dry matter basis, six weeks, versus baseline and young and old controls; FIG. 1. From the text:
The dogs are beagles and Group 1 consists of 10 beagles with the average age of 5.1 years old, Group 2 consists of 10 beagles with an average age of 11.8 years old, and Group 3 consists of 10 beagles with an average age of 11.3 years old. The dogs from all three groups are fed the controlled food for a two week period prior to intervention. […] During the two week period on the control, samples are taken from all dogs and chemical and biological analysis is completed on the samples to establish base line data. Then three groups of dogs eat their respective diets for a six week period of time and after this time period, samples are taken from all of the dogs in the study and chemical and biological analysis is completed on the samples. Baseline data is compared to the data taken at the end of the six week study.

Take `O=C(O)CCCC[C@@H]1CCSS1` (racemic) [lipoic acid]: the NK cell activity entry was “increased NK cell activity”.

Source of the values: patent US20070264287A1, “Methods for Increasing the Immune Response in an Animal” (priority 2004, published 2007).
